Reference: US10759787B2, “Benzofuran derivative, preparation method thereof and use thereof in medicine” (Jiangsu Hengrui Medicine Co., Ltd., priority 2015, dated 2020)

Columns and labels:
[1] = test system: Pfeiffer cells; experiment: In vitro anti-tumor cell growth assay (CellTiter-Glo), Pfeiffer; type: cell-based; conditions: Homo sapiens, 120 h; Pfeiffer cells (A677G mutant), 5 days; read-out: IC50 for inhibiting the growth activity of tumor cells (Pfeiffer) in vitro
Protocol: Test Example 2. Assay for Determining In Vitro Anti-Tumor Cell Growth Activity of the Example Compounds of the Present Invention
This method was used to determinate the inhibitory effect of the compounds of the present invention on the growth activity of tumor cells (Pfeiffer or WSU-DLCL2) in vitro. Pfeiffer cells carry A677G mutant, and WSU-DLCL2 cells carry Y641F mutant.
The lymphoma suspension cell line (Pfeiffer or WSU-DLCL2) was cultured in a RPMI-1640 medium containing 10% inactivated Fetal Bovine Serum, 100 U/mL penicillin, and 100 μg/mL streptomycin, and incubated in an incubator with 5% carbon dioxide at 37° C. under a saturated humidity condition, and passaged every 3-4 days.
A cell sudpension was prepared with a fresh cell medium, added to a 96-well cell culture plate at 8000 cells/well (Pfeiffer) or 2000 cells/well (WSU-DLCL2), and incubated in 5% carbon dioxide at 37° C. incubator overnight. On the day of the experiment, the EZH2 test compounds (final concentration: 20000, 2000, 200, 20, 2, 0.2 nM) were added into the experimental wells for 3 parallel wells per group. A control well with the medium alone but without cells was set up to obtain the background luminescent value. The cell culture plate was incubated in an incubator with 5% carbon dioxide at 37° C. for 5 days.
After the compounds were applied to the cells for 5 days, the cell culture plate was placed at room temperature for 30 minutes, then a CellTiter-Glo reagent equal to the volume of cell culture medium was added to each well. The contents were mixed on a shaker for 10 minutes, and the […] signal values were recorded. The cell growth inhibition rate was calculated, and the formula was: cell growth inhibiton rate=[(negative control control−experimental group)/(negative control group−background luminescent value)]×100%. The IC50 values (half inhibition rate IC50, i.e., a drug concentration that is required for 50% cell growth inhibition rate) were calculated by software from the cell growth inhibiton rate and the corresponding concentration.

[2] = target: EZH2-A677G (Homo sapiens (Human), UniProt Q15910, A677G); experiment: EZH2-A677G mutant enzyme activity assay (HTRF); type: biochemical; conditions: read-out: IC50 for inhibiting the activity of enzyme EZH2-A677G
Chain of EZH2-A677G (Q15910 whole entry A677G): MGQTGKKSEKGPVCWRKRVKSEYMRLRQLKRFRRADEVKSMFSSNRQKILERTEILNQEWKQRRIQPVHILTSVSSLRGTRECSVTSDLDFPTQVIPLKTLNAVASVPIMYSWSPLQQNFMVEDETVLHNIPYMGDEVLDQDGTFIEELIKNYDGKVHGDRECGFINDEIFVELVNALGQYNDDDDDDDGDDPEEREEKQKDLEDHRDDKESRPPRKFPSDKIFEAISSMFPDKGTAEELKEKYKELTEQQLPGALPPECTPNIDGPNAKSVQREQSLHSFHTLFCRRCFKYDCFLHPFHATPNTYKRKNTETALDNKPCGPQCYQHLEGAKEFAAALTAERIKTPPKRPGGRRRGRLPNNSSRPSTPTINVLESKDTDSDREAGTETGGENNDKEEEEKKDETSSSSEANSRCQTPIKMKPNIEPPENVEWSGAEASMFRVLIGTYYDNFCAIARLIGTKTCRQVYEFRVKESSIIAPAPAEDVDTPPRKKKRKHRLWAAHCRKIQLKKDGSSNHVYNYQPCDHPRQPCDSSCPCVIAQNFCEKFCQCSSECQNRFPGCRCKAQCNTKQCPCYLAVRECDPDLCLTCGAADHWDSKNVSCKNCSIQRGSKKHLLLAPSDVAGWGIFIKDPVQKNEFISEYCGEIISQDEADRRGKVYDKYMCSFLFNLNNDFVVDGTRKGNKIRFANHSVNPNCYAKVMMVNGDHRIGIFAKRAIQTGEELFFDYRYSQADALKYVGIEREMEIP
Chain of EZH2-A677G (O75530 whole entry partner): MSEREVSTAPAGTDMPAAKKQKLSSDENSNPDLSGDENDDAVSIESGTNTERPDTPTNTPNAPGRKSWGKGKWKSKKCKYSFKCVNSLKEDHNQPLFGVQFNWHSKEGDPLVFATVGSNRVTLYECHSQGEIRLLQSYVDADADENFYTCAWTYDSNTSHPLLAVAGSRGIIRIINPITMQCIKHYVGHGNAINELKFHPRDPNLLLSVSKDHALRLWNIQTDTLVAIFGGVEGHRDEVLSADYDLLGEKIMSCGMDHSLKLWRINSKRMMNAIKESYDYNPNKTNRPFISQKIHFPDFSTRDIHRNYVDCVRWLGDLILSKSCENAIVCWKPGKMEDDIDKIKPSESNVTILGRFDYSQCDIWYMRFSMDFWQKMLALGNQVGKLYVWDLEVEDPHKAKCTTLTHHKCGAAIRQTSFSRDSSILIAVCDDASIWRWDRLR
Chain of EZH2-A677G (Q15022 whole entry partner): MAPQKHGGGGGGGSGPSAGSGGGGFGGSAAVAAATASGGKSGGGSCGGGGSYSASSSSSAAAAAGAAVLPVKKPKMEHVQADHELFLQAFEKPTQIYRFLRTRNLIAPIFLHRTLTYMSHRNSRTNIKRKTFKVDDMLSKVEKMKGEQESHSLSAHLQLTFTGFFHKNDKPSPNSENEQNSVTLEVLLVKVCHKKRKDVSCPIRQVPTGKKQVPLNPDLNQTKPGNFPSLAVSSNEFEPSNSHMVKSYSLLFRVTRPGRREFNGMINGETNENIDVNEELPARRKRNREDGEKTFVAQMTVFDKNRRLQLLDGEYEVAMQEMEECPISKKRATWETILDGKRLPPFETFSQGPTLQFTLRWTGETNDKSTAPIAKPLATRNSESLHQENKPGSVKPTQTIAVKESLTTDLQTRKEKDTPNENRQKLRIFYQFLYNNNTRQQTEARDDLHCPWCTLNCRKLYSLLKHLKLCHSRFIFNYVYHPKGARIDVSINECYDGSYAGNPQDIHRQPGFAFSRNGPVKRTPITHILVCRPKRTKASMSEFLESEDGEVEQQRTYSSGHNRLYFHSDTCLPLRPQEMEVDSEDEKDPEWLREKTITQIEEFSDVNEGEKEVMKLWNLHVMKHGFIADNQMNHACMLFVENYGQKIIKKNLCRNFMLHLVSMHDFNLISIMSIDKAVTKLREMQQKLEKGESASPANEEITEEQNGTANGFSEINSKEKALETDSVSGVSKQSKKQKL
Chain of EZH2-A677G (Q09028 whole entry partner): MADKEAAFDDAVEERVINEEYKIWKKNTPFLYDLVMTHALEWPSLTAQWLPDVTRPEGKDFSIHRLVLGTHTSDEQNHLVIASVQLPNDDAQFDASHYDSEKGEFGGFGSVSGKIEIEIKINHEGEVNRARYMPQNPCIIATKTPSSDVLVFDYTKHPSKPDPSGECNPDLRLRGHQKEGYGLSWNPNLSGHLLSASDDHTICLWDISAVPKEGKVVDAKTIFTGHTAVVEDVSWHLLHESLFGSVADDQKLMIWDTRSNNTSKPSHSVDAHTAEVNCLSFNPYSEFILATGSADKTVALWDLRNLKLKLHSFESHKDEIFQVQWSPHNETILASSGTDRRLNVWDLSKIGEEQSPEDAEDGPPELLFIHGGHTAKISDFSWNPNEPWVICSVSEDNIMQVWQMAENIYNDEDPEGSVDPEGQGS
Chain of EZH2-A677G (Q6ZN18 whole entry partner): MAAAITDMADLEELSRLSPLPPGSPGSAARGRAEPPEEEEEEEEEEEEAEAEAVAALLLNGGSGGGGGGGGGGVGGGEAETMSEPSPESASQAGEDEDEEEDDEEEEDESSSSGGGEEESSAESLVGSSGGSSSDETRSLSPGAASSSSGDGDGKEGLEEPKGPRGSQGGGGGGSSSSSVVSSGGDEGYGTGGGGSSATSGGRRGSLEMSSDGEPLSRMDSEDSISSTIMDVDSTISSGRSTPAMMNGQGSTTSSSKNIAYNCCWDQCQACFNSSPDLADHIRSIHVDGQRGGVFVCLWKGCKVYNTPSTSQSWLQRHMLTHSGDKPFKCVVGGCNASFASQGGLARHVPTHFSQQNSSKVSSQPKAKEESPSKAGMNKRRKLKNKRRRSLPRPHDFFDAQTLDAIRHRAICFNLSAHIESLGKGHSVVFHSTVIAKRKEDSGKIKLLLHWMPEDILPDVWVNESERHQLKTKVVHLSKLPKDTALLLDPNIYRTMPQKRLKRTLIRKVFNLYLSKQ
Protocol: Histone H3 biotin labeling and S-adenosyl methionine were respectively diluted to 50 nM and 50 μM with a kinase buffer, then added to a 384-well plate at 4 μl/well. The test compound was diluted with a kinase buffer (it was diluted from the highest concentration 30 μM in 10 fold concentration gradient to 7 concentration points), then added to the 384-well microtiter plate at 4 μl/well. The plate was incubated at room temperature for 2 hours. Histone H3K27 Me3 monoclonal antibody and Streptavidin-XL665 were diluted to 30 nM and 500 nM by HTRF detection buffer, then added to the 384-well microplate at 10 µl/well and incubated for 1 hour. A well without an EZH2 enzyme and a compound was used as a negative control, and a well with an EZH2 enzyme but without a compound was used as a positive control. […] The compound logarithm concentration vs the inhibition percentage relative to the positive control well was plotted using GraphPad Prism, then the IC50 values were calculated.

IC50 [1] [nM] | IC50 [2] [nM] | Structure (SMILES)
19 | 14 | CCN(c1cc2oc(CN3CCCCC3)cc2c(C(=O)NCc2c(OC)cc(C)[nH]c2=O)c1C)C1CCOCC1 [Example 4, 6-(Ethyl(tetrahydro-2H-pyran-4-yl)amino)-N-((4-methoxy-6-methyl-2-oxo-1,2-dihydropyridin-3-yl)methyl)-5-methyl-2-(piperidin-1-ylmethyl)benzofuran-4-carboxamide]
19 | 1.2 | CCc1c(N(CC)C2CCOCC2)cc2oc(CN3CCN(C(C)C)CC3)cc2c1C(=O)NCc1c(OC)cc(C)[nH]c1=O [Example 5, 5-Ethyl-6-(ethyl(tetrahydro-2H-pyran-4-yl)amino)-2-((4-isopropylpiperazin-1-yl)methyl)-N-((4-methoxy-6-methyl-2-oxo-1,2-dihydropyridin-3-yl)methyl)benzofuran-4-carboxamide]
3 | 7.8 | CCc1c(N(CC)C2CCOCC2)cc2oc(CN3CCOCC3)cc2c1C(=O)NCc1c(OC)cc(C)[nH]c1=O [Example 6, 5-Ethyl-6-(ethyl(tetrahydro-2H-pyran-4-yl)amino)-N-((4-methoxy-6-methyl-2-oxo-1,2-dihydropyridin-3-yl)methyl)-2-(morpholinomethyl)benzofuran-4-carboxamide]
11 | 3.5 | CCc1c(N(CC)C2CCOCC2)cc2oc(CN3CCC(F)(F)CC3)cc2c1C(=O)NCc1c(OC)cc(C)[nH]c1=O [Example 7, 2-((4,4-Difluoropiperidin-1-yl)methyl)-5-ethyl-6-(ethyl(tetrahydro-2H-pyran-4-yl)amino)-N-((4-methoxy-6-methyl-2-oxo-1,2-dihydropyridin-3-yl)methyl)benzofuran-4-carboxamide]
12 | 6.2 | CCc1c(N(CC)C2CCOCC2)cc2oc(CN3CCCC3)cc2c1C(=O)NCc1c(OC)cc(C)[nH]c1=O [Example 8, 5-Ethyl-6-(ethyl(tetrahydro-2H-pyran-4-yl)amino)-N-((4-methoxy-6-methyl-2-oxo-1,2-dihydropyridin-3-yl)methyl)-2-(pyrrolidin-1-ylmethyl)benzofuran-4-carboxamide]
5 | 1.7 | CCc1c(N(CC)C2CCOCC2)cc2oc(C3CCN(C(C)C)CC3)cc2c1C(=O)NCc1c(OC)cc(C)[nH]c1=O [Example 10, 5-Ethyl-6-(ethyl(tetrahydro-2H-pyran-4-yl)amino)-2-(1-isopropylpiperidin-4-yl)-N-((4-methoxy-6-methyl-2-oxo-1,2-dihydropyridin-3-yl)methyl)benzofuran-4-carboxamide]
22 | 5.6 | CCc1c(N(CC)C2CCOCC2)cc2oc(CN3CCN(CC(C)(C)O)CC3)cc2c1C(=O)NCc1c(C)cc(C)[nH]c1=O [Example 11, N-((4,6-Dimethyl-2-oxo-1,2-dihydropyridin-3-yl)methyl)-5-ethyl-6-(ethyl(tetrahydro-2H-pyran-4-yl)amino)-2-((4-(2-hydroxy-2-methylpropyl)piperazin-1-yl)methyl)benzofuran-4-carboxamide]
22 | 10 | CCc1c(N(CC)C2CCOCC2)cc2oc(CN3CCN(C)CC3)cc2c1C(=O)NCc1c(OC)cc(C)[nH]c1=O [Example 12, 5-Ethyl-6-(ethyl(tetrahydro-2H-pyran-4-yl)amino)-N-((4-methoxy-6-methyl-2-oxo-1,2-dihydropyridin-3-yl)methyl)-2-((4-methylpiperazin-1-yl)methyl)benzofuran-4-carboxamide]
9 | 2.9 | CCc1c(N(CC)C2CCOCC2)cc2oc(CN(C)C)cc2c1C(=O)NCc1c(OC)cc(C)[nH]c1=O [Example 13, 2-((Dimethylamino)methyl)-5-ethyl-6-(ethyl(tetrahydro-2H-pyran-4-yl)amino)-N-((4-methoxy-6-methyl-2-oxo-1,2-dihydropyridin-3-yl)methyl)benzofuran-4-carboxamide]
– | 9.6 | CCc1c(N(CC)C2CCOCC2)cc2oc(C3CCCC3)cc2c1C(=O)NCc1c(C)cc(C)[nH]c1=O [Example 14, 2-Cyclopentyl-N-((4,6-dimethyl-2-oxo-1,2-dihydropyridin-3-yl)methyl)-5-ethyl-6-(ethyl(tetrahydro-2H-pyran-4-yl)amino)benzofuran-4-carboxamide]
13 | 16 | CCN(c1cc2oc(C3CCN(C)CC3)cc2c(C(=O)NCc2c(C)cc(C)[nH]c2=O)c1C)C1CCOCC1 [Example 15, N-((4,6-Dimethyl-2-oxo-1,2-dihydropyridin-3-yl)methyl)-6-(ethyl(tetrahydro-2H-pyran-4-yl)amino)-5-methyl-2-(1-methylpiperidin-4-yl)benzofuran-4-carboxamide]
18 | 31 | CCN(c1cc2oc(C3=CCN(C)CC3)cc2c(C(=O)NCc2c(C)cc(C)[nH]c2=O)c1C)C1CCOCC1 [Example 16, N-((4,6-Dimethyl-2-oxo-1,2-dihydropyridin-3-yl)methyl)-6-(ethyl(tetrahydro-2H-pyran-4-yl)amino)-5-methyl-2-(1-methyl-1,2,3,6-tetrahydropyridin-4-yl)benzofuran-4-carboxamide]
9 | 9.9 | CCc1c(N(CC)C2CCOCC2)cc2oc(C3CCN(C)CC3)cc2c1C(=O)NCc1c(OC)cc(C)[nH]c1=O [Example 17, 5-Ethyl-6-(ethyl(tetrahydro-2H-pyran-4-yl)amino)-N-((4-methoxy-6-methyl-2-oxo-1,2-dihydropyridin-3-yl)methyl)-2-(1-methylpiperidin-4-yl)benzofuran-4-carboxamide]
– | 6.5 | CCN(c1cc2occc2c(C(=O)NCc2c(OC)cc(C)[nH]c2=O)c1Cl)C1CCOCC1 [Example 22, 5-Chloro-6-(ethyl(tetrahydro-2H-pyran-4-yl)amino)-N-((4-methoxy-6-methyl-2-oxo-1,2-dihydropyridin-3-yl)methyl)benzofuran-4-carboxamide]
4 | 3.5 | CCc1c(N(CC)C2CCOCC2)cc2oc(F)cc2c1C(=O)NCc1c(OC)cc(C)[nH]c1=O [Example 27, 5-Ethyl-6-(ethyl(tetrahydro-2H-pyran-4-yl)amino)-2-fluoro-N-((4-methoxy-6-methyl-2-oxo-1,2-dihydropyridin-3-yl)methyl)benzofuran-4-carboxamide]
78 | 6.8 | CCc1c(N(CC2CC2)C2CCOCC2)cc2oc(C3CC3)cc2c1C(=O)NCc1c(OC)cc(C)[nH]c1=O [Example 28, 2-Cyclopropyl-6-((cyclopropylmethyl)(tetrahydro-2H-pyran-4-yl)amino)-5-ethyl-N-((4-methoxy-6-methyl-2-oxo-1,2-dihydropyridin-3-yl)methyl)benzofuran-4-carboxamide]
17 | 2.7 | CCN(c1cc2oc(C(F)(F)F)cc2c(C(=O)NCc2c(OC)cc(C)[nH]c2=O)c1C)C1CCOCC1 [Example 29, 6-(Ethyl(tetrahydro-2H-pyran-4-yl)amino)-N-((4-methoxy-6-methyl-2-oxo-1,2-dihydropyridin-3-yl)methyl)-5-methyl-2-(trifluoromethyl)benzofuran-4-carboxamide]
17 | 0.8 | CCN(c1cc2oc(C#N)cc2c(C(=O)NCc2c(OC)cc(C)[nH]c2=O)c1C)C1CCOCC1 [Example 30, 2-Cyano-6-(ethyl(tetrahydro-2H-pyran-4-yl)amino)-N-((4-methoxy-6-methyl-2-oxo-1,2-dihydropyridin-3-yl)methyl)-5-methylbenzofuran-4-carboxamide]
– | 14 | CCc1c(N(CC2CC2)C2CCN(CC(F)(F)F)CC2)cc2occc2c1C(=O)NCc1c(OC)cc(C)[nH]c1=O [Example 34, 6-((Cyclopropylmethyl)(1-(2,2,2-trifluoroethyl)piperidin-4-yl)amino)-5-ethyl-N-((4-methoxy-6-methyl-2-oxo-1,2-dihydropyridin-3-yl)methyl)benzofuran-4-carboxamide]
